Measurements from PMC7554770, “Develop a High-Throughput Screening Method to Identify C-P4H1 (Collagen Prolyl 4-Hydroxylase 1) Inhibitors from FDA-Approved Chemicals” (International Journal of Molecular Sciences, 2020).

Assays:
Type in all cases: biochemical
[1] = biological target: T1, C-P4H1 (collagen prolyl 4-hydroxylase 1; P4HA1 alpha subunit) (Homo sapiens, UniProt P13674); assay: Succinate-Glo Hydroxylase luminescence assay, dose response, with no-enzyme control
T1 construct: Flag-tagged P4HA1 and P4HB co-expressed in HEK-293FT cells, purified C-P4H1 tetramer; with P4HB (protein disulfide isomerase, beta subunit)

[2] = biological target: T1, C-P4H1 (collagen prolyl 4-hydroxylase 1; P4HA1 alpha subunit); assay: as above; remark: listed apart in the source
[3] = biological target: T1, C-P4H1 (collagen prolyl 4-hydroxylase 1; P4HA1 alpha subunit); assay: Succinate-Glo Hydroxylase assay, varied co-substrate concentration

T1 sequence (P13674 18-534): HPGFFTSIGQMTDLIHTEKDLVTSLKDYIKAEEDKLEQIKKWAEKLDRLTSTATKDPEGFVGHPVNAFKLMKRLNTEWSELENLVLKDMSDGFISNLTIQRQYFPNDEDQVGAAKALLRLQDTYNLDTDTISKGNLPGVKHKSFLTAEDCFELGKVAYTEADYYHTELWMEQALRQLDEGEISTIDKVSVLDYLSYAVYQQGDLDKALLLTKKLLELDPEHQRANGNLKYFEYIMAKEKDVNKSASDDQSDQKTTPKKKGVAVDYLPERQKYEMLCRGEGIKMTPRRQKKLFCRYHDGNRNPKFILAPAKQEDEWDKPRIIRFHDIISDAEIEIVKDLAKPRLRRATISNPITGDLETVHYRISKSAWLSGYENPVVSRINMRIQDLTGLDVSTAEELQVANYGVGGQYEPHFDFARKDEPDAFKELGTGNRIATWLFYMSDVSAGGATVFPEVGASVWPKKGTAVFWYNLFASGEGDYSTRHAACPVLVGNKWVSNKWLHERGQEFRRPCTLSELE
T1 sequence (P07237 18-508 partner): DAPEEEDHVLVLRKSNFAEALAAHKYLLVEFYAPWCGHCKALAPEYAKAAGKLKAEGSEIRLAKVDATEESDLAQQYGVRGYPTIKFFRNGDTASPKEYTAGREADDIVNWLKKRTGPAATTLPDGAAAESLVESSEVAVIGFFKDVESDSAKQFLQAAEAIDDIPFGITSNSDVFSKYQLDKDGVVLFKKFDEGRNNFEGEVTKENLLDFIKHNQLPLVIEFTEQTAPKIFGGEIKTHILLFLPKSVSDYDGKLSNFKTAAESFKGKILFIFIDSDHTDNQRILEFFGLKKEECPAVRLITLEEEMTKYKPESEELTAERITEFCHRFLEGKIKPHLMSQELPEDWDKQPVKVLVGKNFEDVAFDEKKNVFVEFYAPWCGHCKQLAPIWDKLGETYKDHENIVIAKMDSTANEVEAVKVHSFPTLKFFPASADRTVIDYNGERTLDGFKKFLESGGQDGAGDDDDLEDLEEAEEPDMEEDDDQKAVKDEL

| SMILES | Succinate-Glo Hydroxylase luminescence assay, dose response, with no-enzyme cont [2] | further results |
| --- | --- | --- |
| CCOC(=O)c1ccc(O)c(O)c1 [DHB, ethyl-3,4-dihydroxybenzoic acid] |  | IC50 [1]: ~20 µM |
| C[C@H](Cc1cc2c(c(C(N)=O)c1)N(CCCO)CC2)NCCOc1ccccc1OCC(F)(F)F [Silodosin] | Both drugs inhibited C-P4H1 activity in a dose-dependent manner (Figure 4B,D). |  |
| Clc1ccccc1CN1CCc2sccc2C1 [Ticlopidine] | indicating that Silodosin and Ticlopidine specifically inhibited the C-P4H1 activity in vitro |  |
| O=C(O)CCC(=O)C(=O)O [α-KG, α-ketoglutarate] |  | Succinate-Glo Hydroxylase assay, varied co-substrate concentration [3]: increased concentration of GPPG and α-KG induced luminescence assay in a dose-dependent manner |
